Source: ChEMBL document CHEMBL6096706, “Discovery of WDR5-MLL1 and HDAC Dual-Target Inhibitors for the Treatment of Acute Myeloid Leukemia” (J Med Chem, 2025)

Legend:
[1] = Toxicity in mouse implanted in human MV4-11 cells assessed as body weight loss at 10 to 30 mg/kg, ip administered daily for 17 days; assay type: organism-based; conditions: in vivo, 408 h, dose 10-30 mg/kg, time 17 day
[2] = Toxicity in mouse implanted in human MV4-11 cells assessed as spleen damage at 10 to 30 mg/kg, ip administered daily for 17 days by H and E staining based analysis; assay type: organism-based; conditions: in vivo, 408 h, dose 10-30 mg/kg, time 17 day
[3] = test system: MV4-11; test: Induction of apoptosis in human MV4-11 cells assessed as late apoptotic cells at 50 nmol/L incubated for 72 hrs by Annexin V/PI staining based flow cytometry analysis (reference value: 5.14%); assay type: functional
[4] = Toxicity in mouse implanted in human MV4-11 cells assessed as lung damage at 10 to 30 mg/kg, ip administered daily for 17 days by H and E staining based analysis; assay type: organism-based; conditions: in vivo, 408 h, dose 10-30 mg/kg, time 17 day
[5] = test system: MV4-11; test: Induction of apoptosis in human MV4-11 cells assessed as viable cells at 200 nmol/L incubated for 72 hrs by Annexin V/PI staining based flow cytometry analysis (reference value: 90.23%); assay type: functional; conditions: Homo sapiens, MV4-11, read-out: Activity
[6] = Toxicity in mouse implanted in human MV4-11 cells assessed as heart damage at 10 to 30 mg/kg, ip administered daily for 17 days by H and E staining based analysis; assay type: organism-based; conditions: in vivo, 408 h, dose 10-30 mg/kg, time 17 day
[7] = test system: MV4-11; test: Antitumor activity against human MV4-11 cells xenografted in mouse assessed as tumor growth inhibition at 10 mg/kg, ip administered daily for 17 days; assay type: functional; conditions: MV4-11, 408 h, time 17 day, read-out: TGI
[8] = test system: MV4-11; test: Induction of apoptosis in human MV4-11 cells assessed as early apoptotic cells at 200 nmol/L incubated for 72 hrs by Annexin V/PI staining based flow cytometry analysis (reference value: 4.17 %); assay type: functional
[9] = test system: MV4-11; test: Induction of apoptosis in human MV4-11 cells assessed as necrotic cells at 200 nmol/L incubated for 72 hrs by Annexin V/PI staining based flow cytometry analysis (reference value: 0.46%); assay type: functional
[10] = target: Histone deacetylase 1 (Homo sapiens, UniProt Q13547); test: Inhibition of HDAC1 (unknown origin) by fluorescence based assay
[11] = test system: MV4-11; test: Induction of apoptosis in human MV4-11 cells assessed as late apoptotic cells at 200 nmol/L incubated for 72 hrs by Annexin V/PI staining based flow cytometry analysis (reference value: 5.14%); assay type: functional
[12] = test system: MV4-11; test: Antiproliferative activity against human MV4-11 cells assessed as growth inhibition at 0.1 uM measured after 72 hrs in presence of 1 uM of vorinostat by CellTiterGlo assay; assay type: functional; conditions: read-out: GI
[13] = test system: MV4-11; test: Antiproliferative activity against human MV4-11 cells assessed as growth inhibition at 0.5 uM measured after 72 hrs in presence of 0.05 uM of vorinostat by CellTiterGlo assay; assay type: functional; conditions: read-out: GI
[14] = test system: MV4-11; test: Antiproliferative activity against human MV4-11 cells assessed as growth inhibition at 2 uM measured after 72 hrs in presence of 0.5 uM of vorinostat by CellTiterGlo assay; assay type: functional; conditions: read-out: GI
[15] = test system: MV4-11; test: Antiproliferative activity against human MV4-11 cells assessed as growth inhibition at 0.05 uM measured after 72 hrs in presence of 0.1 uM of vorinostat by CellTiterGlo assay; assay type: functional; conditions: read-out: GI
[16] = test system: MV4-11; test: Antiproliferative activity against human MV4-11 cells assessed as growth inhibition at 0.2 uM measured after 72 hrs in presence of 1 uM of vorinostat by CellTiterGlo assay; assay type: functional; conditions: read-out: GI
[17] = test system: MV4-11; test: Induction of apoptosis in human MV4-11 cells assessed as early apoptotic cells at 200 nM incubated for 72 hrs in presence of vorinostat by Annexin V/PI staining based flow cytometry analysis (reference value: 0.76 %); assay type: functional
[18] = test system: MV4-11; test: Antiproliferative activity against human MV4-11 cells assessed as growth inhibition at 1 uM measured after 72 hrs in presence of 1 uM of vorinostat by CellTiterGlo assay; assay type: functional; conditions: read-out: GI
[19] = test system: MV4-11; test: Antiproliferative activity against human MV4-11 cells assessed as growth inhibition at 0.4 uM measured after 72 hrs in presence of 1 uM of vorinostat by CellTiterGlo assay; assay type: functional; conditions: read-out: GI
[20] = test system: MV4-11; test: Induction of apoptosis in human MV4-11 cells assessed as necrotic cells at 600 nM incubated for 72 hrs in presence of vorinostat by Annexin V/PI staining based flow cytometry analysis (reference value: 2.61%); assay type: functional
[21] = test system: MV4-11; test: Induction of apoptosis in human MV4-11 cells assessed as viable cells at 200 nM incubated for 72 hrs by Annexin V/PI staining based flow cytometry analysis (reference value: 96.68%); assay type: functional; conditions: read-out: Activity
[22] = test system: MV4-11; test: Antiproliferative activity against human MV4-11 cells assessed as growth inhibition at 0.05 uM measured after 72 hrs by CellTiterGlo assay; assay type: functional; conditions: read-out: GI
[23] = test system: MV4-11; test: Antiproliferative activity against human MV4-11 cells assessed as growth inhibition at 0.05 uM measured after 72 hrs in presence of 0.5 uM of vorinostat by CellTiterGlo assay; assay type: functional; conditions: read-out: GI
[24] = test system: MV4-11; test: Induction of apoptosis in human MV4-11 cells assessed as late apoptotic cells at 600 nM incubated for 72 hrs in presence of vorinostat by Annexin V/PI staining based flow cytometry analysis (reference value: 6.42 %); assay type: functional
[25] = test system: MV4-11; test: Induction of apoptosis in human MV4-11 cells assessed as late apoptotic cells at 200 nM incubated for 72 hrs in presence of vorinostat by Annexin V/PI staining based flow cytometry analysis (reference value: 6.42 %); assay type: functional
[26] = test system: MV4-11; test: Antiproliferative activity against human MV4-11 cells assessed as growth inhibition at 0.4 uM measured after 72 hrs in presence of 0.5 uM of vorinostat by CellTiterGlo assay; assay type: functional; conditions: read-out: GI
[27] = test system: MV4-11; test: Antiproliferative activity against human MV4-11 cells assessed as growth inhibition at 0.2 uM measured after 72 hrs by CellTiterGlo assay; assay type: functional; conditions: read-out: GI
[28] = test system: MV4-11; test: Antiproliferative activity against human MV4-11 cells assessed as growth inhibition at 0.1 uM measured after 72 hrs in presence of 0.2 uM of vorinostat by CellTiterGlo assay; assay type: functional; conditions: read-out: GI
[29] = test system: MV4-11; test: Induction of apoptosis in human MV4-11 cells assessed as early apoptotic cells at 600 nM incubated for 72 hrs in presence of vorinostat by Annexin V/PI staining based flow cytometry analysis (reference value: 0.76 %); assay type: functional
[30] = test system: MV4-11; test: Antiproliferative activity against human MV4-11 cells assessed as growth inhibition at 2 uM measured after 72 hrs in presence of 1 uM of vorinostat by CellTiterGlo assay; assay type: functional; conditions: read-out: GI
[31] = test system: MV4-11; test: Antiproliferative activity against human MV4-11 cells assessed as growth inhibition at 0.05 uM measured after 72 hrs in presence of 0.05 uM of vorinostat by CellTiterGlo assay; assay type: functional; conditions: read-out: GI
[32] = test system: MV4-11; test: Antiproliferative activity against human MV4-11 cells assessed as growth inhibition at 0.4 uM measured after 72 hrs by CellTiterGlo assay; assay type: functional; conditions: read-out: GI
[33] = test system: MV4-11; test: Induction of apoptosis in human MV4-11 cells assessed as early apoptotic cells at 200 nM incubated for 72 hrs by Annexin V/PI staining based flow cytometry analysis (reference value: 0.76%); assay type: functional
[34] = test system: MV4-11; test: Antiproliferative activity against human MV4-11 cells assessed as growth inhibition at 2 uM measured after 72 hrs in presence of 0.1 uM of vorinostat by CellTiterGlo assay; assay type: functional; conditions: read-out: GI

Sequence of Histone deacetylase 1 (Q13547 whole entry): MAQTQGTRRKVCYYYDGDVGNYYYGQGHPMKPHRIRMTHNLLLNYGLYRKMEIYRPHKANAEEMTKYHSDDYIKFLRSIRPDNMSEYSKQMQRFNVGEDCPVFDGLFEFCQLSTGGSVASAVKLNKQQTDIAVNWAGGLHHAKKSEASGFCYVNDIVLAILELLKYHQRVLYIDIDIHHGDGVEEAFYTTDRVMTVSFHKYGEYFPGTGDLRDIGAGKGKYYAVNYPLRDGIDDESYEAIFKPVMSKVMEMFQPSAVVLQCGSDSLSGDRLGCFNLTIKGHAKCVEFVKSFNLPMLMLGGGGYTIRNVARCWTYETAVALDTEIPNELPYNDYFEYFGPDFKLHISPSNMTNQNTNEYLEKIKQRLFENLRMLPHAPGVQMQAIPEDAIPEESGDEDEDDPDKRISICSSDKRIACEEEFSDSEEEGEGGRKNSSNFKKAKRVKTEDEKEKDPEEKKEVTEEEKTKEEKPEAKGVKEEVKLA

Cc1c(F)c(N)cc(C(=O)Nc2cc(-c3ccc(C(=O)NCc4ccc(/C=C/C(=O)NO)cc4)cc3)ccc2N2CCN(C)CC2)c1Cl
Activity [1]: Non-toxic | Activity [2]: Non-toxic | Activity [3]: 10.86% | Activity [4]: Non-toxic | viability at 0.2 µM [5]: 40.3% | Activity [6]: Non-toxic | inhibition in vivo at 10 mg/kg [7]: 42.3% | Activity [8]: 53.31% | Activity [9]: 0.41% | IC50 [10]: 400 nM | Activity [11]: 6.01%

Cc1c(F)c(N)cc(C(=O)Nc2cc(-c3ccc(C(=O)N4CCOCC4)cc3)ccc2N2CCN(C)CC2)c1Cl
inhibition of growth at 0.1 µM [12]: 88.1% | inhibition of growth at 0.5 µM [13]: 50.1% | inhibition of growth at 2 µM [14]: 95.2% | inhibition of growth at 0.05 µM [15]: 34.5% | inhibition of growth at 0.2 µM [16]: 88.2% | Activity [17]: 33.87% | inhibition of growth at 1 µM [18]: 94.9% | inhibition of growth at 0.4 µM [19]: 90.8% | Activity [20]: 1.55% | viability at 0.2 µM [21]: 90.3% | inhibition of growth at 0.05 µM [22]: 17.5% | inhibition of growth at 0.05 µM [23]: 73.2% | Activity [24]: 19.27% | Activity [25]: 7.65% | inhibition of growth at 0.4 µM [26]: 73.3% | inhibition of growth at 0.2 µM [27]: 23.9% | inhibition of growth at 0.1 µM [28]: 49.3% | viability at 0.2 µM [5]: 88.5% | Activity [29]: 69.5% | inhibition of growth at 2 µM [30]: 95.6% | Activity [8]: 7.36% | Activity [9]: 0.58% | inhibition of growth at 0.05 µM [31]: 30.1% | inhibition of growth at 0.4 µM [32]: 25.5% | Activity [33]: 7.03% | inhibition of growth at 2 µM [34]: 68.6% | Activity [11]: 3.51%
